Measured values reported in BindingDB's records for doi:10.1016/j.bmcl.2018.11.028 (Kumamoto University, 2019).

Columns and labels:
[1] = Inhibition of 20s constitutive proteasome beta2 trypsin-like activity in human erythrocytes using Boc-Leu-Arg-Arg-MCA as substrate preincubated for 10 mins followed by substrate addition and measured after 6 hrs by fluorescence assay
[2] = Inhibition of 20s constitutive proteasome beta1 caspase-like activity in human erythrocytes using […] as substrate preincubated for 10 mins followed by substrate addition and measured after 6 hrs by fluorescence assay

Row | IC50 [1] | IC50 [2] | Structure (SMILES)
1 | 6.3 µM | 0.48 µM | C1=C2CN3CCCC/C=C\CC[C@@H]4CN(CCCC/C=C\CC[C@H]1C3)CC[C@@H]24
2 | – | 4.7 µM | C1=C\CCc2cc3c[n+](c2)CCCC/C=C\CC[C@@H]2CN(CCCC/1)CC[C@@H]32
